Experimental data as given in patent US20160279042A1, “Dental Anti-Hypersensitivity Composition and Method” (The Research Foundation for the State University of New York, priority 1999, published 2016).

Key:
[1] = Hydraulic conductance of dentine discs (Greenhill and Pashley device), simulation of dentinal tubule plugging; settings: for Hydraulic conductance, effect in words: summary of Table 1
From the text: A device developed by Greenhill and Pashley (J. Dental Research, 60:686-698, 1981) that enables simulation of dentinal tubule plugging in vivo was used to assess the effectiveness of the invention. Dentine discs that varied in thickness from 0.6 to 0.8 mm were cut with a Buhler Isomet saw from extracted caries-free molar teeth. They were then etched with 6% citric acid for two minutes to remove the smear layer and stored in 70% ethanol until used. A disc was mounted in the chamber of the apparatus with occlusal side facing upwards. The occlusal side is determined by passing light through a plastic grid beneath the section and observing the section with a dissecting microscope. The tubules appear further apart with the occlusal side up because of the lower tubular density of the dentine occlusally (Walton et al., J. Dental Research 55:639-642, 1976). Hydraulic conductance of fluid through the discs was determined as described by Greenhill and Pashley, supra.
Fluid containing levels of ions present in serum (Merck Manual, 1972) was used to perfuse the disc. Their concentrations in mM were as follows: Na-140.5, K-4.31, Ca-2.5, Mg-1.0, P-1.3. The pH of this solution is raised to 7.0 with sodium hydroxide. The solution was filtered through a […] (Millipore Corp., Marlborough, Mass. 01752) prior to use to remove any bacteria present. This solution is called artificial ionic dentinal fluid (AIDF). Hydrostatic pressure was created by a fluid reservoir leading via a glass capillary tube into the pulpal side of the chamber at a level 30 cm above that of the surface of the horizontally positioned disc. The distance traveled by an air bubble positioned in the AIDF in the capillary tubing between this pressure head and the pulpal side of the disc in a fixed period of time was converted to hydraulic conductance values in ml cm^−1 min^−1 cm H20^−1.
First, […] of AIDF was applied to the upward facing occlusal side of the section and AIDF was allowed to flow through the disc from the pulpal side for a period of five minutes. The distance that the air bubble moved inside the capillary on the pulpal side of the chamber was measured so that the rate of fluid movement through the disc could be calculated and converted to hydraulic conductance values. This procedure was repeated two more times or until a uniform flow rate was achieved on three consecutive runs. […] Next, the mixture was removed with a pipette, washed three times with 400 μl of deionized water and replaced with AIDF. The AIDF was allowed to flow through the dentine slice and hydraulic conductance readings were made at selected times up to 90 minutes.

[2] = Titration of artificial dentinal fluid, aggregation measured by absorbance; assay type: physicochemical; settings: pH of 8.5 and above
Experimental: In order to determine the conditions that promote intrinsic plug formation, we performed the following experiments. We prepared a solution comprised of the ions present in dentinal fluid (which acted as artificial dentinal fluid) and progressively added (titrated) various solutions thereto to determine the conditions and substances conducive to the formation of aggregates (i.e., dentinal plugs). Aggregation was determined by means of measurement of the absorbance with a spectrophotometer.

SMILES | Percent Reduction in Hydraulic Conductance ([1]; 0 minutes after exposure) | Percent Reduction in Hydraulic Conductance ([1]; 15 minutes after exposure) | Percent Reduction in Hydraulic Conductance ([1]; 30 minutes after exposure) | Percent Reduction in Hydraulic Conductance ([1]; 45 minutes after exposure) | Percent Reduction in Hydraulic Conductance ([1]; 60 minutes after exposure) | Percent Reduction in Hydraulic Conductance ([1]; 75 minutes after exposure) | Percent Reduction in Hydraulic Conductance ([1]; 90 minutes after exposure) | Aggregation (deposit formation) of dentinal fluid constituents [2] | Hydraulic conductance, effect in words [1]
O=C([O-])O.[Na+] [sodium bicarbonate] | 0% | −10.6% | −1.0% | 7.2% | 11.5% | 15.9% | 19.7% | nor could one induce deposition | –
[Na+].[OH-] [sodium hydroxide] | – | – | – | – | – | – | – | nor could one induce deposition | –
N=C(N)NCCC[C@H](N)C(=O)O.O=C(O)O [arginine bicarbonate] | 0% | 11.7% | 15.6% | 14.4% | 14.5% | 16.1% | 16.1% | aggregation of dentinal fluid constituents occurred | much smaller effects
O=C([O-])[O-].[Ca+2] [calcium carbonate] | 0% | −18.5% | −12.3% | −5.5% | −4.1% | 5.5% | 5.5% | not sufficient to produce deposit formation | much smaller effects
